Assay results taken from patent publication US10543189B2, “2-acetylnaphtho[2,3-b]furan -4,9-dione for use on treating cancer” (Boston Biomedical, Inc., priority 2013, dated 2020).

How the values were obtained:
[1] = Phase I dose escalation trial: pharmacokinetic profile; assay type: in vivo, human
[2] = Phase 1 extension study of higher strength capsule (DP2A): adverse events; assay type: in vivo
Source text: However, with the higher strength capsules, we observed worsening gastrointestinal adverse effects including nausea, vomiting, and diarrhea in patients.
Additional studies were run using an oral formulation of the Compound of the Invention, specifically a higher strength capsule formulation (DP2A). As described herein, the Compound of the Invention blocks cancer stem cell (CSC) self-renewal and induces cell death in CSC as well as non-stem cancer cells by inhibiting Stat3, β-catenin, and Nanog pathways, and has shown potent anti-tumor and anti-metastatic activities pre-clinically. […] The studies described herein were designed as a phase 1 extension study to evaluate a formulation designed for pivotal trials to determine pharmacokinetics (PK) in patients with advanced cancer.
On Day 1, patients received a single 500 mg dose of an oral administration formulation of the Compound of the Invention (DP1). On Day 4 and Day 8, a higher strength capsule designed for pivotal trials (DP2A) was given with fasting then fed conditions. DP2A was then administered daily until disease progression or unacceptable toxicity. Endpoints were safety, PK and preliminary anticancer activity.

[3] = human, plasma, oral, 20 mg, Total Daily Dose 20 (mg), qd, patient plasma
[4] = q 4 h dosing (N = 17), AE possibly related to BBI608

SMILES: CC(=O)c1cc2c(o1)C(=O)c1ccccc1C2=O [Compound 1, 2-acetylnaphtho[2,3-b]furan-4,9-dione]
- clearance from the blood ([1]; 20 mg QD, humans): rapidly cleared from the blood
- concentration of the compound in urine of the patient ([1]; 20 mg daily administration): surprisingly high concentration
- AUC [1, 3]: 2.7 µM·h
- Cmax [1, 3]: 490 nM
- AUC ([1]; human, plasma, oral, 40 mg, Total Daily Dose 40 (mg), qd, patient plasma): 3.62 µM·h
- AUC ([1]; human, plasma, oral, 80 mg, Total Daily Dose 80 (mg), qd, patient plasma): 13.3 µM·h
- AE summary ([2]; Patient 0053, at 500 mg bid q4h (gastrointestinal issues)): No significant gastrointestinal
- AE summary ([2]; Patient 0054, at 500 mg bid q4h (gastrointestinal issues)): No significant gastrointestinal
- AE summary ([2]; Patient 0061, fatigue, cramping, diarrhea, and nausea starting at 500 mg bid q4h and persisting at 375 mg/250 mg/250 mg q4h): Intolerable grade 2 fatigue,
- Abdominal cramps/pain, Grade 1 or 2, # Subjects [2, 4]: 13
- Abdominal cramps/pain, Grade 1 or 2, % [2, 4]: 76.5%
- Abdominal cramps/pain, Grade 3, # Subjects [2, 4]: 1
- Abdominal cramps/pain, Grade 3, % [2, 4]: 5.9%
- Anorexia, Grade 1 or 2, # Subjects [2, 4]: 10
- Anorexia, Grade 1 or 2, % [2, 4]: 58.8%
- Anorexia, Grade 3, # Subjects [2, 4]: 3
- Anorexia, Grade 3, % [2, 4]: 17.6%
- Bloated abdomen, Grade 1 or 2, # Subjects [2, 4]: 4
- Bloated abdomen, Grade 1 or 2, % [2, 4]: 23.5%
- Bloated abdomen, Grade 3, # Subjects [2, 4]: 0
- Bloated abdomen, Grade 3, % [2, 4]: 0.0%
- Dehydration, Grade 1 or 2, # Subjects [2, 4]: 1
- Dehydration, Grade 1 or 2, % [2, 4]: 5.9%
- Dehydration, Grade 3, # Subjects [2, 4]: 0
- Dehydration, Grade 3, % [2, 4]: 0.0%
- Depression, Grade 1 or 2, # Subjects [2, 4]: 0
- Depression, Grade 1 or 2, % [2, 4]: 0.0%
- Depression, Grade 3, # Subjects [2, 4]: 0
- Depression, Grade 3, % [2, 4]: 0.0%
- Diarrhea, Grade 1 or 2, # Subjects [2, 4]: 14
- Diarrhea, Grade 1 or 2, % [2, 4]: 82.4%
- Diarrhea, Grade 3, # Subjects [2, 4]: 4
- Diarrhea, Grade 3, % [2, 4]: 23.5%
- Dysgusia, Grade 1 or 2, # Subjects [2, 4]: 1
- Dysgusia, Grade 1 or 2, % [2, 4]: 5.9%
- Dysgusia, Grade 3, # Subjects [2, 4]: 0
- Dysgusia, Grade 3, % [2, 4]: 0.0%
- Fatigue/weakness, Grade 1 or 2, # Subjects [2, 4]: 10
- Fatigue/weakness, Grade 1 or 2, % [2, 4]: 58.8%
- Fatigue/weakness, Grade 3, # Subjects [2, 4]: 3
- Fatigue/weakness, Grade 3, % [2, 4]: 17.6%
- Flatulence, Grade 1 or 2, # Subjects [2, 4]: 2
- Flatulence, Grade 1 or 2, % [2, 4]: 11.8%
- Flatulence, Grade 3, # Subjects [2, 4]: 0
- Flatulence, Grade 3, % [2, 4]: 0.0%
- Nausea, Grade 1 or 2, # Subjects [2, 4]: 8
- Nausea, Grade 1 or 2, % [2, 4]: 47.1%
- Nausea, Grade 3, # Subjects [2, 4]: 1
- Nausea, Grade 3, % [2, 4]: 5.9%
- Rectal/Anal Burning, Grade 1 or 2, # Subjects [2, 4]: 3
- Rectal/Anal Burning, Grade 1 or 2, % [2, 4]: 17.6%
- Rectal/Anal Burning, Grade 3, # Subjects [2, 4]: 0
- Rectal/Anal Burning, Grade 3, % [2, 4]: 0.0%
- Reflux (also heartburn), Grade 1 or 2, # Subjects [2, 4]: 1
- Reflux (also heartburn), Grade 1 or 2, % [2, 4]: 5.9%
- Reflux (also heartburn), Grade 3, # Subjects [2, 4]: 0
- Reflux (also heartburn), Grade 3, % [2, 4]: 0.0%
- Urine Color Change, Grade 1 or 2, # Subjects [2, 4]: 2
- Urine Color Change, Grade 1 or 2, % [2, 4]: 11.8%
- Urine Color Change, Grade 3, # Subjects [2, 4]: 0
- Urine Color Change, Grade 3, % [2, 4]: 0.0%
- Vomiting, Grade 1 or 2, # Subjects [2, 4]: 7
- Vomiting, Grade 1 or 2, % [2, 4]: 41.2%
- Vomiting, Grade 3, # Subjects [2, 4]: 0
- Vomiting, Grade 3, % [2, 4]: 0.0%
- Weight loss, Grade 1 or 2, # Subjects [2, 4]: 8
- Weight loss, Grade 1 or 2, % [2, 4]: 47.1%
- Weight loss, Grade 3, # Subjects [2, 4]: 0
- Weight loss, Grade 3, % [2, 4]: 0.0%
- Xerostomia, Grade 1 or 2, # Subjects [2, 4]: 4
- Xerostomia, Grade 1 or 2, % [2, 4]: 23.5%
- Xerostomia, Grade 3, # Subjects [2, 4]: 0
